{"source": "ChEMBL document CHEMBL6078713", "about": "“Synthesis and mechanistic studies of 4-aminoquinoline-Isatin molecular hybrids and Schiff's bases as promising antimicrobial agents” (Eur J Med Chem, 2025)", "assay_type_in_all_cases": "functional", "key": {"Acinetobacter baumannii": {"tested_on": "Acinetobacter baumannii", "experiment": "Antibacterial activity against Acinetobacter baumannii assessed as inhibition of bacterial growth"}, "Escherichia coli [1]": {"tested_on": "Escherichia coli", "experiment": "Antibacterial activity against Escherichia coli clinical isolate ECJH2 assessed as diameter of zone of inhibition by disk diffusion assay"}, "Escherichia coli [2]": {"tested_on": "Escherichia coli", "experiment": "Antibacterial activity against Escherichia coli clinical isolate ECJH3 assessed as diameter of zone of inhibition by disk diffusion assay"}, "Escherichia coli [3]": {"tested_on": "Escherichia coli", "experiment": "Antibacterial activity against Escherichia coli clinical isolate ECJH5 assessed as diameter of zone of inhibition by disk diffusion assay"}, "Escherichia coli [4]": {"tested_on": "Escherichia coli", "experiment": "Antibacterial activity against Escherichia coli clinical isolate ECJH6 assessed as diameter of zone of inhibition by disk diffusion assay"}, "Escherichia coli [5]": {"tested_on": "Escherichia coli", "experiment": "Antibacterial activity against Escherichia coli clinical isolate ECJH7 assessed as diameter of zone of inhibition by disk diffusion assay"}, "Escherichia coli [6]": {"tested_on": "Escherichia coli", "experiment": "Antibacterial activity against Escherichia coli clinical isolate ECJH8 assessed as diameter of zone of inhibition by disk diffusion assay"}, "Escherichia coli [7]": {"tested_on": "Escherichia coli", "experiment": "Antibacterial activity against Escherichia coli clinical isolate ECJH9 assessed as diameter of zone of inhibition by disk diffusion assay"}, "Escherichia coli [8]": {"tested_on": "Escherichia coli", "experiment": "Antibacterial activity against Escherichia coli clinical isolate ECJH10 assessed as diameter of zone of inhibition by disk diffusion assay"}, "Escherichia coli [9]": {"tested_on": "Escherichia coli", "experiment": "Antibacterial activity against Escherichia coli clinical isolate ECJH11 assessed as diameter of zone of inhibition by disk diffusion assay"}, "Escherichia coli [10]": {"tested_on": "Escherichia coli", "experiment": "Antibacterial activity against Escherichia coli clinical isolate ECJH15 assessed as diameter of zone of inhibition by disk diffusion assay"}, "Escherichia coli [11]": {"tested_on": "Escherichia coli", "experiment": "Antibacterial activity against Escherichia coli clinical isolate ECJH16 assessed as diameter of zone of inhibition by disk diffusion assay"}, "Escherichia coli [12]": {"tested_on": "Escherichia coli", "experiment": "Antibacterial activity against Escherichia coli clinical isolate ECJH17 assessed as diameter of zone of inhibition by disk diffusion assay"}, "Escherichia coli [13]": {"tested_on": "Escherichia coli", "experiment": "Antibacterial activity against Escherichia coli clinical isolate ECJH18 assessed as diameter of zone of inhibition by disk diffusion assay"}, "Escherichia coli [14]": {"tested_on": "Escherichia coli", "experiment": "Antibacterial activity against Escherichia coli clinical isolate ECJH19 assessed as diameter of zone of inhibition by disk diffusion assay"}, "Escherichia coli [15]": {"tested_on": "Escherichia coli", "experiment": "Antibacterial activity against Escherichia coli clinical isolate ECJH21 assessed as diameter of zone of inhibition by disk diffusion assay"}, "Escherichia coli [16]": {"tested_on": "Escherichia coli", "experiment": "Antibacterial activity against Escherichia coli clinical isolate ECJH23 assessed as diameter of zone of inhibition by disk diffusion assay"}, "Escherichia coli [17]": {"tested_on": "Escherichia coli", "experiment": "Antibacterial activity against Escherichia coli clinical isolate ECJH24 assessed as diameter of zone of inhibition by disk diffusion assay"}, "Escherichia coli [18]": {"tested_on": "Escherichia coli", "experiment": "Antibacterial activity against Escherichia coli clinical isolate ECJH25 assessed as diameter of zone of inhibition by disk diffusion assay"}, "Staphylococcus aureus": {"tested_on": "Staphylococcus aureus", "experiment": "Antibacterial activity against Staphylococcus aureus assessed as inhibition of bacterial growth"}}}
{"compound": "N/N=C/c1cc(N2CCOCC2)c2cccc(C(F)(F)F)c2n1", "values": [{"measurement": "MIC", "setting": "Acinetobacter baumannii", "value": 2, "unit": "µg/mL"}]}
{"compound": "CC1(C)S[C@@H]2[C@H](NC(=O)[C@H](N)c3ccccc3)C(=O)N2[C@H]1C(=O)O", "note": "[AMPICILLIN]", "values": [{"measurement": "diameter of the inhibition zone (DIZ)", "setting": "Escherichia coli [1]", "value": 22, "unit": "mm"}, {"measurement": "diameter of the inhibition zone (DIZ)", "setting": "Escherichia coli [2]", "value": 19, "unit": "mm"}, {"measurement": "diameter of the inhibition zone (DIZ)", "setting": "Escherichia coli [3]", "value": 18, "unit": "mm"}, {"measurement": "diameter of the inhibition zone (DIZ)", "setting": "Escherichia coli [4]", "value": 14, "unit": "mm"}, {"measurement": "diameter of the inhibition zone (DIZ)", "setting": "Escherichia coli [5]", "value": 24, "unit": "mm"}, {"measurement": "diameter of the inhibition zone (DIZ)", "setting": "Escherichia coli [6]", "value": 21, "unit": "mm"}, {"measurement": "diameter of the inhibition zone (DIZ)", "setting": "Escherichia coli [7]", "value": 16, "unit": "mm"}, {"measurement": "diameter of the inhibition zone (DIZ)", "setting": "Escherichia coli [8]", "value": 18, "unit": "mm"}, {"measurement": "diameter of the inhibition zone (DIZ)", "setting": "Escherichia coli [9]", "value": 21, "unit": "mm"}, {"measurement": "diameter of the inhibition zone (DIZ)", "setting": "Escherichia coli [10]", "value": 20, "unit": "mm"}, {"measurement": "diameter of the inhibition zone (DIZ)", "setting": "Escherichia coli [11]", "value": 17, "unit": "mm"}, {"measurement": "diameter of the inhibition zone (DIZ)", "setting": "Escherichia coli [12]", "value": 16, "unit": "mm"}, {"measurement": "diameter of the inhibition zone (DIZ)", "setting": "Escherichia coli [13]", "value": 17, "unit": "mm"}, {"measurement": "diameter of the inhibition zone (DIZ)", "setting": "Escherichia coli [14]", "value": 17, "unit": "mm"}, {"measurement": "diameter of the inhibition zone (DIZ)", "setting": "Escherichia coli [15]", "value": 18, "unit": "mm"}, {"measurement": "diameter of the inhibition zone (DIZ)", "setting": "Escherichia coli [16]", "value": 20, "unit": "mm"}, {"measurement": "diameter of the inhibition zone (DIZ)", "setting": "Escherichia coli [17]", "value": 22, "unit": "mm"}, {"measurement": "diameter of the inhibition zone (DIZ)", "setting": "Escherichia coli [18]", "value": 22, "unit": "mm"}]}
{"compound": "CCCCCCCCCCCCOC(=O)c1cc(OCCCCCCCCCCCC)nc2ccccc12", "values": [{"measurement": "MIC", "setting": "Staphylococcus aureus", "value": 6.25, "unit": "µg/mL"}]}
